Assay results published in patent US4443436A, “C-20-Modified macrolide derivatives of the macrolide antibiotics tylosin, desmycosin, macrocin, and lactenocin” (Eli Lilly and Company, priority 1982, dated 1984).
Converted amounts (≈) assume the structure as drawn. Like-named read-outs stand apart in the source and are kept apart here.

Legend:
[1] = test system: Streptococcus pyogenes C203; assay: In vivo protection of mice experimentally infected with S. pyogenes C203; conditions: Streptococcus pyogenes, mice, doses given 1 and 4 hours post-infection
Method: The C-20 modified derivatives of this invention have shown in vivo antimicrobial activity against experimentally-induced infections in laboratory animals. When two doses of test compound were administered to mice experimentally infected with S. pyogenes C203, the activity observed was measured as an ED50 value [effective dose in mg/kg to protect 50% of the test animals: see Warren Wick, et al., J. Bacteriol. 81, 233-235 (1961)].

Mycoplasma gallisepticum = assay: MIC, broth-dilution microtiter test, Mycoplasma gallisepticum; assay type: cell-based; conditions: Mycoplasmoides gallisepticum; Mycoplasma gallisepticum; broth-dilution microtiter; read-out: MIC
From the text: (§1) The MIC's in Table X were obtained using conventional broth-dilution microtiter tests.

[2] = test system: Staphylococcus aureus V41; assay: MIC, standard agar-dilution assay, Staphylococcus aureus V41; assay type: cell-based; conditions: Staphylococcus aureus, V41
[3] = test system: Streptococcus pneumoniae Park I; assay: microbe, parasite or virus in culture; assay type: cell-based
[4] = test system: Staphylococcus aureus X1.1; assay: MIC, standard agar-dilution assay, Staphylococcus aureus X1.1; assay type: cell-based; conditions: Staphylococcus aureus, X1.1
[5] = test system: Pasteurella multocida 60A; assay: MIC, broth-dilution microtiter test, Pasteurella multocida 60A; assay type: cell-based
From the text: as §1

[6] = test system: Staphylococcus aureus S13E; assay: MIC, standard agar-dilution assay, Staphylococcus aureus S13E; assay type: cell-based; conditions: Staphylococcus aureus, S13E
Mycoplasma hyopneumoniae = assay: MIC, broth-dilution microtiter test, Mycoplasma hyopneumoniae; assay type: cell-based; conditions: Mesomycoplasma hyopneumoniae
From the text: as §1

Pasteurella multocida = assay: Oral (gavage) treatment of Pasteurella multocida-infected chicks; assay type: in vivo, one-day-old chicks
Method: Many of the C-20 modified derivatives of this invention have also shown in vivo antibacterial activity against infections induced by gram-negative bacteria. Tables XII and XIII summarize the results of tests in which illustrative compounds were evaluated against Pasteurella infection in one-day-old chicks. The compounds were administered parenterally or orally after challenge of the chicks with Pasteurella multocida (0.1 ml of a 10^-4 dilution of a twenty-hour tryptose broth culture of an avian P. multocida given subcutaneously). In these tests, unless indicated otherwise, all non-medicated infected chicks died within 24 hours of Pasteurella challenge. In the tests summarized in Table XII the compounds were administered by subcutaneous injection at a dosage of 30 mg/kg, 1 and 4 hours post-challenge of the chicks with P. multocida. In the test summarized in Table XIII the compounds were administered by gavage at 1 and 5 hours post-challenge of the chicks with P. multocida.

[7] = test system: Pasteurella multocida 17E; assay: MIC, broth-dilution microtiter test, Pasteurella multocida 17E; assay type: cell-based
From the text: as §1

Streptococcus Group 9960 = assay: MIC, standard agar-dilution assay, Streptococcus Group 9960; assay type: cell-based; conditions: GROUP9960
[8] = test system: Streptococcus pyogenes C203; assay: MIC, standard agar-dilution assay, Streptococcus pyogenes C203; assay type: cell-based; conditions: Streptococcus pyogenes, C203
[9] = test system: Staphylococcus epidermidis EPI1; assay: MIC, standard agar-dilution assay, Staphylococcus epidermidis EPI1; assay type: cell-based
Streptococcus bovis 80 = assay: MIC, broth-dilution microtiter test, Streptococcus bovis 80; assay type: cell-based; conditions: Streptococcus equinus
From the text: as §1

[10] = test system: Streptococcus Group D X66; assay: MIC, standard agar-dilution assay, Streptococcus Group D X66; assay type: cell-based
[11] = test system: Haemophilus influenzae R252; assay: MIC, standard agar-dilution assay, Haemophilus influenzae R252; assay type: cell-based
[12] = test system: Haemophilus influenzae Holt; assay: MIC, standard agar-dilution assay, Haemophilus influenzae Holt; assay type: cell-based
Staphylococcus aureus = assay: MIC, broth-dilution microtiter test, Staphylococcus aureus; assay type: cell-based; conditions: broth-dilution microtiter, read-out: MIC
From the text: as §1

[13] = test system: Pasteurella hemolytica 22C; assay: MIC, broth-dilution microtiter test, Pasteurella hemolytica 22C; assay type: cell-based; conditions: Pasteurella hemolytica 22C; broth-dilution microtiter; read-out: MIC
From the text: as §1

[14] = test system: Staphylococcus aureus X400; assay: MIC, standard agar-dilution assay, Staphylococcus aureus X400; assay type: cell-based
Mycoplasma synoviae = assay: MIC, broth-dilution microtiter test, Mycoplasma synoviae; assay type: cell-based; conditions: Mycoplasmopsis synoviae
From the text: as §1

Mycoplasma hyorhinis = assay: MIC, broth-dilution microtiter test, Mycoplasma hyorhinis; assay type: cell-based
From the text: as §1

[15] = test system: Staphylococcus epidermidis EPI2; assay: MIC, standard agar-dilution assay, Staphylococcus epidermidis EPI2; assay type: cell-based; conditions: Staphylococcus epidermidis EPI2; agar dilution; read-out: MIC
[16] = C203, sc, subcutaneous, read-out: ED50, Subcutaneous
[17] = C203, oral, read-out: ED50, Oral
[18] = Pasteurella multocida 60A, avian isolate, broth-dilution microtiter, read-out: MIC
[19] = Mycoplasma hyopneumoniae, broth-dilution microtiter, read-out: MIC
[20] = Streptococcus bovis 80, broth-dilution microtiter, read-out: MIC
[21] = Streptococcus Group 9960, agar dilution, read-out: MIC
[22] = Staphylococcus epidermidis, EPI1

Row | Compound | ED50 [1, 16] [mg/kg] | ED50 [1, 17] [mg/kg] | MIC (Mycoplasma gallisepticum) [µg/mL] | MIC [2] [µg/mL] | MIC ([3]; Streptococcus pneumoniae) [µg/mL] | MIC [4] [µg/mL] | MIC [5, 18] [µg/mL] | MIC [6] [µg/mL] | MIC (Mycoplasma hyopneumoniae; [19]) [µg/mL] | Number of Deaths/Number tested (Pasteurella multocida; 0.5 g/gal equivalent) | Number of Deaths/Number tested (Pasteurella multocida; 1.0 g/gal equivalent) | MIC [8] [µg/mL] | MIC (Streptococcus bovis 80; [20]) [µg/mL] | MIC [10] [µg/mL] | MIC (Staphylococcus aureus) [µg/mL] | MIC [13] [µg/mL] | MIC (Mycoplasma synoviae) [µg/mL] | MIC (Mycoplasma hyorhinis; Mycoplasma) [µg/mL] | MIC [15] [µg/mL] | MIC ([7]; Pasteurella multocida, 17E) [µg/mL] | further results
1 | CCC1OC(=O)CC(O)C(C)C(OC2OC(C)C(O)C(N(C)C)C2O)C(CCF)CC(C)C(=O)C=CC(C)=CC1COC1OC(C)C(O)C(OC)C1OC (centres unmarked) [Compound 22, 20-DH-DO-20-Fluorodesmycosin] | 5 | 11 | 12.5 (≈ 16.1 µM) | 0.25 (≈ 0.322 µM) | 2 (≈ 2.58 µM) | 0.25 (≈ 0.322 µM) | 25 (≈ 32.2 µM) | 0.25 (≈ 0.322 µM) | > 25 | 6/10 | 0/10 | 0.25 (≈ 0.322 µM) | 1.56 (≈ 2.01 µM) | 8 (≈ 10.3 µM) | 3.12 (≈ 4.02 µM) | > 50 | 50 (≈ 64.4 µM) | 50 (≈ 64.4 µM) | 0.12 (≈ 0.155 µM) |  | Number of Deaths/Number tested (Pasteurella multocida; 2.0 g/gal equivalent): 1/10; MIC ([7]; Pasteurella multocida 17E, bovine isolate, broth-dilution microtiter, read-out: MIC): 25 µg/mL (≈ 32.2 µM); MIC (Streptococcus Group 9960): 8 µg/mL (≈ 10.3 µM); MIC ([9]; Staphylococcus epidermidis EPI1, agar dilution, read-out: MIC): 0.12 µg/mL (≈ 0.155 µM); MIC ([11]; Haemophilus influenzae R252, ampicillin-resistant strain, read-out: MIC): 16 µg/mL (≈ 20.6 µM); MIC ([12]; Haemophilus influenzae Holt, ampicillin-sensitive strain, read-out: MIC): 16 µg/mL (≈ 20.6 µM); MIC ([14]; Staphylococcus aureus X400, methicillin-resistant strain, agar dilution, read-out: MIC): 0.5 µg/mL (≈ 0.644 µM)
2 | CCC1OC(=O)CC(O)C(C)C(OC2OC(C)C(O)C(N(C)C)C2O)C(CCSc2ccccc2)CC(C)C(=O)C=CC(C)=CC1COC1OC(C)C(O)C(OC)C1OC (centres unmarked) [Compound 23, 20-DH-DO-20-(phenylthio)desmycosin] | 10 | 17 | 0.09 (≈ 0.104 µM) | 0.25 (≈ 0.289 µM) |  | 0.25 (≈ 0.289 µM) |  | 0.25 (≈ 0.289 µM) | > 25 | 8/10 | 10/10 | 0.25 (≈ 0.289 µM) | 6.25 (≈ 7.22 µM) |  | 0.19 (≈ 0.219 µM) | 25 (≈ 28.9 µM) |  |  | 0.12 (≈ 0.139 µM) | 12.5 (≈ 14.4 µM) | MIC ([3]; Streptococcus pneumoniae Park I, agar dilution, read-out: MIC): 2 µg/mL (≈ 2.31 µM); MIC ([5]; Pasteurella multocida, 60A): 12.5 µg/mL (≈ 14.4 µM); MIC (Streptococcus Group 9960; [21]): 16 µg/mL (≈ 18.5 µM); MIC [9, 22]: 0.25 µg/mL (≈ 0.289 µM); MIC ([10]; Streptococcus Group D X66, agar dilution, read-out: MIC): 8 µg/mL (≈ 9.24 µM); MIC ([14]; Staphylococcus aureus, X400): 0.25 µg/mL (≈ 0.289 µM); MIC (Mycoplasma synoviae; Mycoplasma synoviae, broth-dilution microtiter, read-out: MIC): 6.25 µg/mL (≈ 7.22 µM); MIC (Mycoplasma hyorhinis; Mycoplasma hyorhinis, broth-dilution microtiter, read-out: MIC): > 50 µg/mL
3 | CCC1OC(=O)CC(O)C(C)C(OC2OC(C)C(O)C(N(C)C)C2O)C(CCOc2ccc([N+](=O)[O-])cc2)CC(C)C(=O)C=CC(C)=CC1COC1OC(C)C(O)C(OC)C1OC (centres unmarked) [Compound 34, 20-DH-20-O-(p-Nitrophenyl)desmycosin] | 1.1 | 5 | 0.39 (≈ 0.436 µM) | 0.5 (≈ 0.559 µM) | 1 (≈ 1.12 µM) | 0.5 (≈ 0.559 µM) | 25 (≈ 27.9 µM) | 0.5 (≈ 0.559 µM) |  | 7/10 | 9/10 | 1 (≈ 1.12 µM) |  | 4 (≈ 4.47 µM) | 0.39 (≈ 0.436 µM) | 25 (≈ 27.9 µM) | 0.78 (≈ 0.871 µM) | 50 (≈ 55.9 µM) | 0.12 (≈ 0.134 µM) | 12.5 (≈ 14 µM) | MIC (Mycoplasma hyopneumoniae): 12.5 µg/mL (≈ 14 µM); MIC (Streptococcus Group 9960; [21]): 8 µg/mL (≈ 8.94 µM); MIC [9, 22]: 0.5 µg/mL (≈ 0.559 µM); MIC (Streptococcus bovis 80; 80): 1.56 µg/mL (≈ 1.74 µM); MIC ([11]; Haemophilus influenzae, R252): 16 µg/mL (≈ 17.9 µM); MIC ([12]; Haemophilus influenzae): 16 µg/mL (≈ 17.9 µM); MIC ([14]; Staphylococcus aureus, X400): 1 µg/mL (≈ 1.12 µM)
